Results as given in article PMC10447463, “Data-mining unveils structure–property–activity correlation of viral infectivity enhancing self-assembling peptides” (Nature Communications, 2023).

Assays:
[1] = type: physicochemical; details: for ThT Cat. / ThT-Fluorescence (categorical): ThT-active if fluorescence at least twice the control
Summary of the method: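 Fibrils (1 mg/mL solution) were mixed with 50 µM ThT in PBS for 15 min at RT, and fluorescence was read at λex 440/λem 488 nm against a PBS blank, as a triplicate mean ± SD. Zeta potential came from electrophoretic mobility (Smoluchowski) after 1 d aggregation at 1 mg/mL in PBS pH 7.4, diluted into 1 mM KCl.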

[2] = Zeta-potential measurement; type: physicochemical; details: for Zeta pot. / mV: 1 mg/mL in PBS pH 7.4 from 10 mg/mL DMSO stock, 1 d RT, 60 µL diluted in 600 µL 1 mM KCl, Zetasizer Nano ZS, Smoluchowski, mean of triplicate; for Zeta-Potential / mV: mean, Figure 7B
Summary of the method: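 Dissolve peptide from DMSO (10 mg/mL stock) into PBS pH 7.4 to 1 mg/mL. Incubate 1 d, RT. Dilute in 1 mM KCl just before reading. Derive zeta potential from mobility (Smoluchowski).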

[3] = Turbidity, derived count rate of scattered light; type: physicochemical; details: log10 of derived count rate of scattered light, Figure 7B

Substance	ThT Cat. / ThT-Fluorescence (categorical) [1]	Zeta pot. / mV [2] [mV]	Zeta-Potential / mV [2] [mV]	Log10 Count Rate [3]	Tht rel to blank (42.1851851851852) ([1]; ThT fluorescence relative to blank, blank = 42.1851851851852)	Tht category (> 1.5 to blank = +) ([1]; category 1/0)	Zeta Pot. / mV [2] [mV]	Zeta category ( +1 = if > 4 mV;-1 = if < -4 mV; 0 = -4mV to 4 mV) [2]
DFNKF [reference compound]	0 (ThT-inactive (N-Fold <2))	-11.8	-11.77	3.027	–	–	–	–
VQIVYK [reference compound]	0 (ThT-inactive (N-Fold <2))	-2.7	-2.66	1.414	–	–	–	–
RCELARTLKR [reference compound]	0 (ThT-inactive (N-Fold <2))	-0.9	-0.85	1.893	–	–	–	–
NSGAITIG-NH2 [reference compound]	0 (ThT-inactive (N-Fold <2))	-8.4	-8.45	1.294	–	–	–	–
RIRIQIC [PS07]	–	–	–	–	1.32	0 (ThT-inactive (N-Fold <2))	16	1 (+1 = if > 4 mV)
VLYVGSKT [reference compound]	0 (ThT-inactive (N-Fold <2))	-9.1	-9.07	1.386	–	–	–	–
GNNQQNY [reference compound]	0 (ThT-inactive (N-Fold <2))	-6.6	-6.62	1.572	–	–	–	–
IIKIIK [reference compound]	0 (ThT-inactive (N-Fold <2))	-7.0	-7	0.6128	–	–	–	–
GAITIG-NH2 [reference compound]	0 (ThT-inactive (N-Fold <2))	-5.4	-5.36	1.474	–	–	–	–
GQTVTK [reference compound]	0 (ThT-inactive (N-Fold <2))	-5.3	-5.26	1.536	–	–	–	–
